Active and inactive are the calls of the source. The calls are words filed in the database; no cut-off is given here.
What was measured:
Type in all cases: functional, organism-based
Saccharomyces cerevisiae [1] = test: Antiaging effect in Saccharomyces cerevisiae K6001 expressing skn7 mutant assessed as extension of replicative life span after 2 days
Saccharomyces cerevisiae [2] = test: Effect on SIRT1 expression in Saccharomyces cerevisiae K6001 by SIRT1/Sir2 deacetylase fluorometric assay
Saccharomyces cerevisiae [3] = test: Antiaging effect in Saccharomyces cerevisiae K6001 assessed as extension of replicative life span at 10 uM after 2 days
Saccharomyces cerevisiae [4] = test: Effect on SOD1 gene expression in Saccharomyces cerevisiae K6001 at 10 uM by RT-PCR
Saccharomyces cerevisiae [5] = test: Antiaging effect in Saccharomyces cerevisiae K6001 expressing uth1 mutant assessed as extension of replicative life span after 2 days
Saccharomyces cerevisiae [6] = test: Effect on SOD2 gene expression in Saccharomyces cerevisiae K6001 at 10 uM by RT-PCR
Saccharomyces cerevisiae [7] = test: Antiaging effect in Saccharomyces cerevisiae K6001 assessed as extension of replicative life span after 2 days

Compound | Activity (Saccharomyces cerevisiae [1]) | Activity (Saccharomyces cerevisiae [2]) | Activity (Saccharomyces cerevisiae [3]) | Activity (Saccharomyces cerevisiae [4]) | Activity (Saccharomyces cerevisiae [5]) | Activity (Saccharomyces cerevisiae [6]) | Activity (Saccharomyces cerevisiae [7])
CC(C)[C@@H](C)/C=C/[C@@H](C)[C@H]1C[C@@H](O)C2=C3C=CC4=CC(=O)CC[C@]4(C)C3CC[C@@]21C (some centres undefined) | inactive | inactive | Active | inactive | inactive | inactive | –
Oc1ccc(/C=C/c2cc(O)cc(O)c2)cc1 | – | – | Active | – | – | – | Dose-dependent effect
CC(C)[C@@H](C)/C=C/[C@@H](C)[C@H]1C[C@H](O)C2=C3C=CC4=CC(=O)CC[C@]4(C)C3CC[C@@]21C (some centres undefined) | inactive | inactive | Active | inactive | inactive | inactive | –
